From PMC5938390, “Tachyplesin Causes Membrane Instability That Kills Multidrug-Resistant Bacteria by Inhibiting the 3-Ketoacyl Carrier Protein Reductase FabG” (Frontiers in Microbiology, 2018)
Positions of bridges follow the written chain, without caps; N, C: chain ends. No end group written: not given here.

Key:
[1] = system: A. baumannii 1408; assay: MIC against MDR clinical isolate; assay type: cell-based, Acinetobacter baumannii
[2] = system: P. aeruginosa 1409; assay: MIC against MDR clinical isolate; assay type: cell-based, Pseudomonas aeruginosa
[3] = system: K. pneumoniae 5; assay: MIC against clinical isolate; assay type: cell-based, Klebsiella pneumoniae
[4] = system: E. coli 513; assay: MIC against clinical isolate; assay type: cell-based, Escherichia coli
[5] = system: P. aeruginosa strain 1409; assay: Membrane rupture by propidium iodide staining; assay type: cell-based, Pseudomonas aeruginosa; conditions: LB medium, 25°C, 1 h, then PI 10 μg/ml 30 min
Method: These studies were carried out as we previously reported with slight modifications and briefly introduced as follows ([Liu et al., 2017]). […] Cytotoxicity in different cell lines was assessed using the Cell Proliferation Kit II (XTT) (Roche), and cytotoxicity in hemocytes was evaluated by the increase in the absorbance at 540 nm after peptide incubation. Membrane rupture was indicated by the entrance of the DNA-binding fluorescent dye PI into MDR clinical isolates of P. aeruginosa strain 1409. Membrane translocation of N-terminal FITC-conjugated tachyplesin III (purity ≥ 95%, synthesized by GL Biochem Co., Ltd, Shanghai, China) into MDR clinical isolates of Acinetobacter baumannii strain 1408 were detected by confocal laser-scanning microscopy.
After centrifugation at 3000 g for 10 min, cells were resuspended in the same volume of PBS (phosphate-buffered saline, 8 g/L NaCl, 0.2 g/L KCl, 1.44 g/L Na2HPO4, 0.24 g/L KH2PO4, pH 7.4). Then, PI was added to a final concentration of 10 μg/ml. After 30 min of incubation at 25°C, the cells were washed three times with PBS and immediately imaged with a fluorescence microscope.

[6] = system: A. baumannii 1408; assay: Transcriptome analysis (RNA sequencing, FPKM, DESeq); assay type: cell-based, Acinetobacter baumannii; conditions: Ab, Ta 16 μg/ml or Lvf 32 μg/ml, 30 min, 37°C
Method: (§1) The Vitek 32 system (bioMerieux, France) and 16S rDNA sequencing were used to verify the clinical isolates A. baumannii 1408, P. aeruginosa 1409, Klebsiella pneumoniae 5 and E. coli 513, which were grown overnight in Luria-Bertani (LB) medium at 37°C with constant shaking at 220 rpm to reach the middle of their logarithmic growth phase. […] After the addition of 2 volumes of RNAprotect Bacteria Reagent (QIAGEN) to stabilized RNA, samples were vortexed for 5 s, incubated for 5 min at room temperature (15–25°C) and collected by centrifugation at 4°C for 5 min at 4000 g.
(§2) RNA isolation and sequencing were performed by Novogene Bioinformatics Technology Co., Ltd. (Beijing, China) as previously described ([Liu B. et al., 2014]). Clean reads were mapped to the corresponding bacterial genomes using Bowtie 2 software ([Langmead and Salzberg, 2012]). Gene expression was calculated using the FPKM (expected number of fragments per kilobase of transcript sequence per millions of base pairs sequenced) method with HTSeq software (union model) ([Anders et al., 2015]). Differentially expressed genes were selected based on the DESeq R package with Padj values < 0.05 ([Anders and Huber, 2010]). KEGG pathway analysis was performed using KOBAS (2.0), and the corrected p value cut-off was set at 0.05 ([Li et al., 2015]).

[7] = system: E. coli 513; assay: as above; assay type: cell-based, Escherichia coli; conditions: Ec, Ta 16 μg/ml or Lvf 32 μg/ml, 30 min, 37°C
Method: as §1, §2

[8] = system: K. pneumoniae 5; assay: as above; assay type: cell-based, Klebsiella pneumoniae; conditions: Kp, Ta 16 μg/ml or Lvf 32 μg/ml, 30 min, 37°C
Method: as §1, §2

[9] = system: P. aeruginosa 1409; assay type: cell-based, Pseudomonas aeruginosa; conditions: Pa, Ta 16 μg/ml or Lvf 32 μg/ml, 30 min, 37°C
Method: as §1, §2

[10] = target: T1, 3-ketoacyl carrier protein reductase FabG from E. coli (E. coli, UniProt P0AEK2 1-244); assay: SPR; tachyplesin III amine-coupled to a CM5 chip (approximately 1000 resonance units); FabG (1.25, 2.5, 5, 10 μg/mL) in HBS-N running buffer injected at 20 μl/min for 6 min; Biacore 3000; 1:1 Langmuir binding model; conditions: both partners purified
T1 construct: FabG, 3-ketoacyl-acyl carrier protein reductase, E. coli; cloned into the NcoI and XhoI sites of pET28a; also called 3-ketoacyl-acyl carrier protein reductase; β-ketoacyl-acyl carrier protein (ACP) reductase FabG; source: E. coli BL21 DE3 (pET28a), purified with Ni resin
T1 sequence: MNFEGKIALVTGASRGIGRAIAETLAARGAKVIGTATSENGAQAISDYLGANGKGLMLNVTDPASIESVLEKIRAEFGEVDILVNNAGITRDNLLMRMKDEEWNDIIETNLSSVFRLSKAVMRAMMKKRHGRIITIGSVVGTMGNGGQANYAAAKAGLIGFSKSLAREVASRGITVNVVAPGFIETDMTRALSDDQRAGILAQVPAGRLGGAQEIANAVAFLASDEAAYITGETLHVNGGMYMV

With C[C@H]1COc2c(N3CCN(C)CC3)c(F)cc3c(=O)c(C(=O)O)cn1c23 [levofloxacin] the “32 μg/ml levofloxacin expressed as multiple of MIC” value (shortened to “32 μg/ml levofloxacin expressed”) [1] was 1 × MIC, the “32 μg/ml levofloxacin expressed” value ([2]; P. aeruginosa 1409) was 2 × MIC and the “1/4× MIC” value ([2]; P. aeruginosa strain 1409) was 4 µg/mL. The “4× MIC” value ([2]; P. aeruginosa strain 1409) was 64 µg/mL, the “32 μg/ml levofloxacin expressed” value [3] was 2 × MIC and the “32 μg/ml levofloxacin expressed” value [4] was 1 × MIC. The “membrane integrity (PI fluorescence)” value ([5]; 1/4× MIC) was “did not affect the integrity of bacterial membranes”, the “membrane integrity (PI fluorescence)” value ([5]; 4× MIC (high concentration)) was “some of the bacterial membranes were broken slightly” and the “FPKM of gene A1S_1815” value ([6]; control 0) was 0. The “FPKM of gene Novel00132” value ([6]; control 18.2658) was 8.387, the “FPKM of gene A1S_0707” value ([6]; control 51.3724) was 62.4914 and the “FPKM of gene A1S_2182” value ([6]; control 136.449) was 191.991. The “FPKM of gene A1S_2061 (3-ketoacyl-acyl carrier protein reductase)” value ([6]; control 323) was 328, the “FPKM of gene A1S_1368” value ([6]; control 2030.48) was 1961.71 and the “readcount of gene A1S_0001 in treated sample” value ([6]; differential analysis) was 246.119. The “readcount of gene A1S_0002 in treated sample” value ([6]; differential analysis) was 308.109, the “readcount of gene A1S_0003 in treated sample” value ([6]; differential analysis) was 33.1432 and the “readcount of gene A1S_0004 in treated sample” value ([6]; differential analysis) was 622.97. The “FPKM of gene b1943” value ([7]; control 0) was 0, the “FPKM of gene b1815” value ([7]; control 22.7313) was 15.6958 and the “FPKM of gene b0242” value ([7]; control 40.7621) was 43.1933. For the same molecule, the “FPKM of gene b2495” value ([7]; control 62.5019) was 46.4771, the “FPKM of gene b4004” value ([7]; control 64.6122) was 63.7219 and the “FPKM of gene b3846 (3-hydroxyacyl-CoA dehydrogenase)” value ([7]; control 97) was 94. For the same molecule, the “FPKM of gene b1093 (3-ketoacyl-acyl carrier protein reductase)” value ([7]; control 633) was 627, the “readcount of gene b0001 in treated sample” value ([7]; differential analysis) was 28.7713 and the “readcount of gene b0002 in treated sample” value ([7]; differential analysis) was 277.558. For the same molecule, the “readcount of gene b0003 in treated sample” value ([7]; differential analysis) was 192.091, the “readcount of gene b0004 in treated sample” value ([7]; differential analysis) was 222.554 and the “readcount of gene b0005 in treated sample” value ([7]; differential analysis) was 14.3856. For the same molecule, the “FPKM of gene KPNJ2_01473” value ([8]; control 0) was 1.282, the “FPKM of gene KPNJ2_01064” value ([8]; control 3.68216) was 0 and the “FPKM of gene KPNJ2_04725” value ([8]; control 22.8601) was 21.9489. The “FPKM of gene KPNJ2_03426 (3-ketoacyl-acyl carrier protein reductase)” value ([8]; control 41.4) was 80.6, the “FPKM of gene KPNJ2_01584 (Enoyl-CoA hydratase)” value ([8]; control 128) was 190 and the “FPKM of gene KPNJ2_04200” value ([8]; control 4040.19) was 4507.07. For the same molecule, the “readcount of gene KPNJ2_00001 in treated sample” value ([8]; differential analysis) was 119.391, the “readcount of gene KPNJ2_00002 in treated sample” value ([8]; differential analysis) was 95.8073 and the “readcount of gene KPNJ2_00003 in treated sample” value ([8]; differential analysis) was 27.2682. The “readcount of gene KPNJ2_00004 in treated sample” value ([8]; differential analysis) was 368.489, the “readcount of gene KPNJ2_00005 in treated sample” value ([8]; differential analysis) was 375.122 and the “FPKM of gene PADK2_26395” value ([9]; control 7.76041) was 10.0809. For the same molecule, the “FPKM of gene PADK2_02440” value ([9]; control 10.8663) was 14.499, the “FPKM of gene PADK2_25635” value ([9]; control 48.5098) was 42.4346 and the “FPKM of gene PADK2_02970” value ([9]; control 53.0528) was 66.953. The “FPKM of gene PADK2_25405 (3-ketoacyl-acyl carrier protein reductase)” value ([9]; control 56) was 43, the “FPKM of gene PADK2_17500” value ([9]; control 97.7062) was 119.076 and the “FPKM of gene PADK2_09275 (3-hydroxyacyl-CoA dehydrogenase)” value ([9]; control 361) was 369. For the same molecule, the “readcount of gene Novel00001 in treated sample” value ([9]; differential analysis) was 77.24, the “readcount of gene Novel00002 in treated sample” value ([9]; differential analysis) was 21.4195 and the “readcount of gene Novel00003 in treated sample” value ([9]; differential analysis) was 79.1872. For the same molecule, the “readcount of gene Novel00004 in treated sample” value ([9]; differential analysis) was 104.501 and the “readcount of gene Novel00005 in treated sample” value ([9]; differential analysis) was 85.0289.

B1: tachyplesin III (peptide)
peptide: KWCFRVCYRGICYRKCR
modifications: disulfide 7-12, 3-16; ends not checked
notes: tachyplesin III, cationic beta-hairpin antimicrobial peptide from horseshoe crab hemocytes; 17 residues; Coupled to the CM5 chip through amines in the SPR; source: synthetic peptide (purity ≥ 95%, synthesized by GL Biochem Co., Ltd, Shanghai, China)
B1: binds [10].
